# In US9393271B2, “GHRH agonists for islet cell transplantation and function and the treatment of diabetes” (UNIVERSITY OF MIAMI, priority 2012, dated 2016):
# Non-standard residues stand in square brackets, D forms with d. Residues, ends and D or L forms follow the SMILES beside them. *: point of attachment. Phe(F5) = N[C@@H](Cc1c(F)c(F)c(F)c(F)c1F)C(=O)O; Desaminotyrosyl = O=C(CCc1ccc(O)cc1)*; NMeY = CN[C@@H](Cc1ccc(O)cc1)C(=O)O; Agmatine = N=C(N)NCCCCN*; NMeA = CN[C@@H](C)C(=O)O; Nle = CCCC[C@H](N)C(=O)O; Orn = NCCC[C@H](N)C(=O)O; Abu = CC[C@H](N)C(=O)O; Aoc = NCCCCCCCC(=O)O
# Target: T1, GHRH receptor (human pituitary membrane homogenates) (Homo sapiens, UniProt Q02643)
# T1 sequence (Q02643 23-423): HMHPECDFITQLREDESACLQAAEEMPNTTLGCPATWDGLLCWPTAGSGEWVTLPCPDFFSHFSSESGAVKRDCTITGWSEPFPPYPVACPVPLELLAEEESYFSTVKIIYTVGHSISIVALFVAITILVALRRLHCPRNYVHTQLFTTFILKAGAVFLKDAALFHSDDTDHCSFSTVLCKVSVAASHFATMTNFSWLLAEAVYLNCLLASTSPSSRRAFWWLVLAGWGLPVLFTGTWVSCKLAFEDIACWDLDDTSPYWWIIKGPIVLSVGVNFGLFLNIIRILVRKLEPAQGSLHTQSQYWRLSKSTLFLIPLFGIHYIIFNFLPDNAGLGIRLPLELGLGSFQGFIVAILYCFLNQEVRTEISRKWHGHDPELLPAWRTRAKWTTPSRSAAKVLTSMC
# Assay: GHRH receptor binding, ligand competition with 125I-labeled JV-1-42 (Table 7)
# Set-up: Normal human pituitaries were purchased from the National Hormone and Peptide Program; tissue National Hormone and Peptide Program (A. F. Parlow, Harbor-UCLA Medical Center, Torrance, Calif.); host or cells: normal human pituitary, membrane fraction / homogenate
# Conditions: JI-38 = 1
row,SMILES,Relative affinitiy (Binding potency) vs JI-38
1,"CCCC[C@H](NC(=O)[C@@H](NC(=O)[C@H](CC(=O)O)NC(=O)[C@H](CCC(N)=O)NC(=O)[C@H](CC(C)C)NC(=O)[C@H](CC(C)C)NC(=O)[C@H](CCCN)NC(=O)[C@H](CCCNC(=N)N)NC(=O)[C@H](C)NC(=O)[C@H](CO)NC(=O)[C@H](CC(C)C)NC(=O)[C@H](CCC(N)=O)NC(=O)[C@H](CC)NC(=O)[C@H](CC(C)C)NC(=O)[C@@H](NC(=O)[C@H](CCCN)NC(=O)[C@H](CCCNC(=N)N)NC(=O)[C@H](Cc1ccc(O)cc1)NC(=O)[C@H](CO)NC(=O)[C@H](CCC(N)=O)NC(=O)[C@@H](NC(=O)[C@H](Cc1ccccc1)NC(=O)[C@@H](NC(=O)[C@H](C)NC(=O)[C@H](CC(=O)O)NC(=O)[C@@H](C)NC(=O)[C@H](Cc1ccc(O)cc1)N(C)C(C)=O)[C@@H](C)CC)[C@@H](C)O)C(C)C)[C@@H](C)CC)C(=O)N[C@@H](CC(=O)O)C(=O)NCCCCNC(=N)N [Peptide P-20351, [Ac—N—Me-Tyr^1, D-Ala^2, Gln^8, Orn^12, Abu^15, Orn^21, Nle^27, Asp^28, Agm^29]hGHRH(1-29)] (Ac-[NMeY][dA]DAIFTQSYR[Orn]VL[Abu]QLSAR[Orn]LLQDI[Nle]D-Agmatine)",1.26
2,"CCCC[C@H](NC(=O)[C@@H](NC(=O)[C@H](CC(=O)O)NC(=O)[C@H](CCC(N)=O)NC(=O)[C@H](CC(C)C)NC(=O)[C@H](CC(C)C)NC(=O)[C@H](CCCN)NC(=O)[C@H](CCCNC(=N)N)NC(=O)[C@H](C)NC(=O)[C@H](CO)NC(=O)[C@H](CC(C)C)NC(=O)[C@H](CCC(N)=O)NC(=O)[C@H](CC)NC(=O)[C@H](CC(C)C)NC(=O)[C@@H](NC(=O)[C@H](CCCN)NC(=O)[C@H](CCCNC(=N)N)NC(=O)[C@H](Cc1ccc(O)cc1)NC(=O)[C@H](CO)NC(=O)[C@H](C)N(C)C(=O)[C@@H](NC(=O)[C@H](Cc1ccccc1)NC(=O)[C@@H](NC(=O)[C@H](C)NC(=O)[C@H](CC(=O)O)NC(=O)[C@@H](C)NC(=O)CCc1ccc(O)cc1)[C@@H](C)CC)[C@@H](C)O)C(C)C)[C@@H](C)CC)C(=O)N[C@@H](CC(=O)O)C(=O)NCCCCNC(=N)N [Peptide P-20357, [Dat^1, D-Ala^2, N—Me-Ala^8, Orn^12, Abu^15, Orn^21, Nle^27, Asp^28, Agm^29]hGHRH(1-29)] (Desaminotyrosyl-[dA]DAIFT[NMeA]SYR[Orn]VL[Abu]QLSAR[Orn]LLQDI[Nle]D-Agmatine)",5.06
3,"CCCC[C@H](NC(=O)[C@@H](NC(=O)[C@H](CC(=O)O)NC(=O)[C@H](CCC(N)=O)NC(=O)[C@H](CC(C)C)NC(=O)[C@H](CC(C)C)NC(=O)[C@H](CCCN)NC(=O)[C@H](CCCNC(=N)N)NC(=O)[C@H](C)NC(=O)[C@H](CO)NC(=O)[C@H](CC(C)C)NC(=O)[C@H](CCC(N)=O)NC(=O)[C@H](CC)NC(=O)[C@H](CC(C)C)NC(=O)[C@@H](NC(=O)[C@H](CCCN)NC(=O)[C@H](CCCNC(=N)N)NC(=O)[C@H](Cc1ccc(O)cc1)NC(=O)[C@H](CO)NC(=O)[C@H](CC(N)=O)NC(=O)[C@@H](NC(=O)[C@H](Cc1c(F)c(F)c(F)c(F)c1F)NC(=O)[C@@H](NC(=O)[C@H](C)NC(=O)[C@H](CC(=O)O)NC(=O)[C@@H](C)NC(=O)[C@H](Cc1ccc(O)cc1)NC)[C@@H](C)CC)[C@@H](C)O)C(C)C)[C@@H](C)CC)C(=O)N[C@@H](CC(=O)O)C(=O)NCCCCNC(=N)N [Peptide P-20359, [N—Me-Tyr^1, D-Ala^2, Fpa5^6, Orn^12, Abu^15, Orn^21, Nle^27, Asp^28, Agm^29]hGHRH(1-29)] (H-[NMeY][dA]DAI[Phe(F5)]TNSYR[Orn]VL[Abu]QLSAR[Orn]LLQDI[Nle]D-Agmatine)",1.43
4,"CCCC[C@H](NC(=O)[C@@H](NC(=O)[C@H](CC(=O)O)NC(=O)[C@H](CCC(N)=O)NC(=O)[C@H](CC(C)C)NC(=O)[C@H](CC(C)C)NC(=O)[C@H](CCCN)NC(=O)[C@H](CCCNC(=N)N)NC(=O)[C@H](C)NC(=O)[C@H](CO)NC(=O)[C@H](CC(C)C)NC(=O)[C@H](CCC(N)=O)NC(=O)[C@H](CC)NC(=O)[C@H](CC(C)C)NC(=O)[C@@H](NC(=O)[C@H](CCCN)NC(=O)[C@H](CCCNC(=N)N)NC(=O)[C@H](Cc1ccc(O)cc1)NC(=O)[C@H](CO)NC(=O)[C@H](CCC(N)=O)NC(=O)[C@@H](NC(=O)[C@H](Cc1ccccc1)NC(=O)[C@@H](NC(=O)[C@H](C)NC(=O)[C@H](CC(=O)O)NC(=O)[C@@H](C)NC(=O)[C@H](Cc1ccc(O)cc1)NC)[C@@H](C)CC)[C@@H](C)O)C(C)C)[C@@H](C)CC)C(=O)N[C@@H](CC(=O)O)C(=O)NCCCCNC(=N)N [Peptide P-20361, [N—Me-Tyr^1, D-Ala^2, Gln^8, Orn^12, Abu^15, Orn^21, Nle^27, Asp^28, Agm^29] hGHRH(1-29)] (H-[NMeY][dA]DAIFTQSYR[Orn]VL[Abu]QLSAR[Orn]LLQDI[Nle]D-Agmatine)",5.30
5,"CCCC[C@H](NC(=O)[C@@H](NC(=O)[C@H](CC(=O)O)NC(=O)[C@H](CCC(N)=O)NC(=O)[C@H](CC(C)C)NC(=O)[C@H](CC(C)C)NC(=O)[C@H](CCCN)NC(=O)[C@H](CCCNC(=N)N)NC(=O)[C@H](C)NC(=O)[C@H](CO)NC(=O)[C@H](CC(C)C)NC(=O)[C@H](CCC(N)=O)NC(=O)[C@H](CC)NC(=O)[C@H](CC(C)C)NC(=O)[C@@H](NC(=O)[C@H](CCCN)NC(=O)[C@H](CCCNC(=N)N)NC(=O)[C@H](Cc1ccc(O)cc1)NC(=O)[C@H](CO)NC(=O)[C@H](CC(N)=O)NC(=O)[C@@H](NC(=O)[C@H](Cc1ccccc1)NC(=O)[C@@H](NC(=O)[C@H](C)NC(=O)[C@H](CC(=O)O)NC(=O)[C@@H](C)NC(=O)CCc1ccc(O)cc1)[C@@H](C)CC)[C@@H](C)O)C(C)C)[C@@H](C)CC)C(=O)N[C@@H](CC(=O)O)C(=O)N[C@@H](CCCNC(=N)N)C(=O)NCCCCCCCC(N)=O [Peptide P-21300, [Dat^1, D-Ala^2, Orn^12, Abu^15, Orn^21, Nle^27, Asp^28, Amc^30]hGHRH(1-30)NH2] (Desaminotyrosyl-[dA]DAIFTNSYR[Orn]VL[Abu]QLSAR[Orn]LLQDI[Nle]DR[Aoc]-NH2)",1.20
6,"CCCC[C@H](NC(=O)[C@@H](NC(=O)[C@H](CC(=O)O)NC(=O)[C@H](CCC(N)=O)NC(=O)[C@H](CC(C)C)NC(=O)[C@H](CC(C)C)NC(=O)[C@H](CCCN)NC(=O)[C@H](CCCNC(=N)N)NC(=O)[C@H](C)NC(=O)[C@H](CO)NC(=O)[C@H](CC(C)C)NC(=O)[C@H](CCC(N)=O)NC(=O)[C@H](CC)NC(=O)[C@H](CC(C)C)NC(=O)[C@@H](NC(=O)[C@H](CCCN)NC(=O)[C@H](CCCNC(=N)N)NC(=O)[C@H](Cc1ccc(O)cc1)NC(=O)[C@H](CO)NC(=O)[C@H](CC(N)=O)NC(=O)[C@@H](NC(=O)[C@H](Cc1ccccc1)NC(=O)[C@@H](NC(=O)[C@H](C)NC(=O)[C@H](CC(=O)O)NC(=O)[C@H](C)NC(=O)[C@H](Cc1ccc(O)cc1)NC)[C@@H](C)CC)[C@@H](C)O)C(C)C)[C@@H](C)CC)C(=O)N[C@@H](CC(=O)O)C(=O)N[C@@H](CCCNC(=N)N)C(=O)NCCCCCCCC(N)=O [Peptide P-21301, [N—Me-Tyr^1, Orn^12, Abu^15, Orn^21, Nle^27, Asp^28, Amc^30]hGHRH(1-30)NH2] (H-[NMeY]ADAIFTNSYR[Orn]VL[Abu]QLSAR[Orn]LLQDI[Nle]DR[Aoc]-NH2)",1.45
